From ChEMBL document CHEMBL1136896, “Synthesis and biological evaluation of arylhydrazinocyanoacrylates and N-aryl pyrazolecarboxylates” (2009) come the findings set out here.

Holding throughout (type): functional
Assay [1] has as its system Amaranthus retroflexus. The assay can be described thus: Herbicidal activity against Amaranthus retroflexus at 1.5 kg/hectare administered postemergence of first true leaf measured after 10 days. The settings on record: post-emergence, 240 h.
The test system of assay [2] is HL-60. Kind of assay: Antitumor activity against human HL60 cells at 100 uM/L after 72 hrs by MTT assay. Particulars: HL-60, 72 h. (Tetrazolium assays rely on reduction of a dye to a coloured formazan, in cell work by metabolically active cells.)
In assay [3] the test system is HL-60. Kind of assay: Antitumor activity against human HL60 cells at 1 uM/L after 72 hrs by MTT assay. Particulars: HL-60, 72 h.
Assay [4] has as its system Medicago sativa. Kind of assay: Herbicidal activity against Medicago sativa at 1.5 kg/hectare administered postemergence of first true leaf measured after 10 days. Particulars: post-emergence, 240 h.
In assay [5] the test system is Brassica napus. Kind of assay: Herbicidal activity against Brassica napus at 1.5 kg/hectare administered postemergence of first true leaf measured after 10 days. Particulars: post-emergence, 240 h.
The test system of assay [6] is Digitaria sanguinalis. The assay can be described thus: Herbicidal activity against Digitaria sanguinalis at 1.5 kg/hectare administered postemergence of first true leaf measured after 10 days. Particulars: post-emergence, 240 h.
Assay [7] relates to Brassica napus. Kind of assay: Herbicidal activity against Brassica napus L. at 1.5 kg/hectare administered preemergence of first true leaf measured after 10 days. The settings on record: pre-emergence, 240 h.
The test system of assay [8] is Medicago sativa. The assay can be described thus: Herbicidal activity against Medicago sativa at 1.5 kg/hectare administered preemergence of first true leaf measured after 10 days. The settings on record: pre-emergence, 240 h.
Assay [9] relates to Bel-7402. The assay can be described thus: Antitumor activity against human Bel7402 cells at 100 uM/L after 72 hrs by MTT assay. The settings on record: Bel-7402, 72 h.
In assay [10] the test system is Digitaria sanguinalis. The assay can be described thus: Herbicidal activity against Digitaria sanguinalis (L.) Scop. at 1.5 kg/hectare administered preemergence of first true leaf measured after 10 days. The settings on record: pre-emergence, 240 h.
The subject of assay [11] is Bel-7402. Kind of assay: Antitumor activity against human Bel7402 cells at 1000 uM/L after 72 hrs by MTT assay. Particulars: Bel-7402, 72 h.
The subject of a further assay is Mycosphaerella arachidis. The assay can be described thus: Fungicidal activity against Cercospora arachidicola assessed as inhibition of mycelium growth at 50 mg/L after 72 hrs.
In another assay the test system is Cladosporium cucumerinum. Kind of assay: Fungicidal activity against Cladosporium cucumerinum assessed as inhibition of mycelium growth at 50 mg/L after 72 hrs.
Assay [12] relates to HL-60. Kind of assay: Antitumor activity against human HL60 cells at 1000 uM/L after 72 hrs by MTT assay. The settings on record: HL-60, 72 h.
The test system of assay [13] is Bel-7402. The assay can be described thus: Antitumor activity against human Bel7402 cells at 1 uM/L after 72 hrs by MTT assay. Particulars: Bel-7402, 72 h.
Assay [14] relates to Bel-7402. The assay can be described thus: Antitumor activity against human Bel7402 cells at 10 uM/L after 72 hrs by MTT assay. Particulars: Bel-7402, 72 h.
The subject of assay [15] is Botryosphaeria berengeriana. The assay can be described thus: Fungicidal activity against Physalospora pyricola assessed as inhibition of mycelium growth at 50 mg/L after 72 hrs.
Another assay relates to Cucumis sativus. Kind of assay: Growth regulatory activity in cucumber assessed as root growth at 10 mg/L incubated in dark for 5 days.
Assay [16] concerns Amaranthus retroflexus. Kind of assay: Herbicidal activity against Amaranthus retroflexus at 1.5 kg/hectare administered preemergence of first true leaf measured after 10 days. Particulars: pre-emergence, 240 h.
Assay [17] relates to HL-60. Kind of assay: Antitumor activity against human HL60 cells at 10 uM/L after 72 hrs by MTT assay. Particulars: HL-60, 72 h.
A further assay has as its system Alternaria solani. The assay can be described thus: Fungicidal activity against Alternaria solani assessed as inhibition of mycelium growth at 50 mg/L after 72 hrs.
In another assay the test system is Fusarium graminearum. Kind of assay: Fungicidal activity against Gibberella zeae assessed as inhibition of mycelium growth at 50 mg/L after 72 hrs.

For `CCOCCOC(=O)/C(C#N)=C(/CC)NNc1c(Cl)cc(Cl)cc1Cl`, the inhibition – broadly, the drop in the measured response relative to a control, in per cent – at 1500 g/ha with Amaranthus retroflexus [1] was found to be 13.3%; in the assay with Medicago sativa [4], 5.6%; with Brassica napus [5], 0%; in the assay with Digitaria sanguinalis [6] it was 1.8%; with Brassica napus [7] it was 0%; in the assay on Medicago sativa [8], 0%. The results for the inhibition at 1500 g/ha with Digitaria sanguinalis [10] and in the assay with Amaranthus retroflexus [16] were 0% and 8.8%, respectively. Moreover, the inhibition at 100 µM in the assay with HL-60 [2] turned out to be 36.6%; with Bel-7402 [9], 3.6%. Moreover, the inhibition at 1 µM is 2.5% with HL-60 [3] and 0% in the assay with Bel-7402 [13]. Moreover, the figures for the inhibition at 1000 µM in the assay on Bel-7402 [11] and with HL-60 [12] were 95.9% and 84.3%, respectively. In addition, the inhibition at 50 µg/mL came out at 15.5% in the assay with Mycosphaerella arachidis; 22.2% with Cladosporium cucumerinum; 46.7% in [15]; 25% with Alternaria solani; 19.2% in the assay on Fusarium graminearum. Further, the inhibition at 10 µM in the assay on Bel-7402 [14] came to 3.9%; in the assay on HL-60 [17] it was 23.1%. Besides, in the assay with Cucumis sativus, the Activity was -16.5%.
For the compound `CCOCCOC(=O)/C(C#N)=C(\NNc1cccc(Cl)c1Cl)C(C)C`, the inhibition at 1500 g/ha is 22.7% in the assay on Amaranthus retroflexus [1]; 5.1% in the assay on Medicago sativa [4]; 0.2% with Brassica napus [5]; 16.1% in the assay with Digitaria sanguinalis [6]; 0% with Brassica napus [7]; 0% in the assay on Medicago sativa [8]. The inhibition at 1500 g/ha with Digitaria sanguinalis [10] and with Amaranthus retroflexus [16] was 0% throughout. Besides, the results for the inhibition at 100 µM with HL-60 [2] and with Bel-7402 [9] were 36.2% and 19%, respectively. For the same compound, the inhibition at 1 µM with HL-60 [3] is 24.3%; in the assay with Bel-7402 [13], 14.7%. For the same compound, the inhibition at 1000 µM with Bel-7402 [11] came out at 49.1%; in the assay with HL-60 [12], 48.8%. Also, the inhibition at 50 µg/mL in the assay with Mycosphaerella arachidis turned out to be 36.4%; in the assay on Cladosporium cucumerinum, 25%; in assay [15], 66.7%; in the assay on Alternaria solani, 35%; with Fusarium graminearum, 14.4%. Moreover, the inhibition at 10 µM in the assay on Bel-7402 [14] was 15.1%; in the assay with HL-60 [17], 28.7%. In addition, in the assay with Cucumis sativus, the Activity is reported as 72.9%.
Take `CCOCCOC(=O)c1c(SC)nn(-c2ccc([N+](=O)[O-])cc2)c1N`: the inhibition at 1500 g/ha turned out to be 0% with Amaranthus retroflexus [1]; 38.3% with Medicago sativa [4]; 0% in the assay with Brassica napus [5]; 0% in the assay with Digitaria sanguinalis [6]; 0% in the assay on Brassica napus [7]; 0% in the assay on Medicago sativa [8]. For the same compound, the inhibition at 1500 g/ha in the assay on Digitaria sanguinalis [10] and in the assay with Amaranthus retroflexus [16] was 0% each time. Further, the inhibition at 100 µM came to 22.3% in the assay with HL-60 [2] and 4.2% with Bel-7402 [9]. Besides, the inhibition at 1 µM worked out at 2.4% in the assay with HL-60 [3] and 5.5% with Bel-7402 [13]. Moreover, the inhibition at 1000 µM turned out to be 48.4% with Bel-7402 [11] and 28.5% in the assay on HL-60 [12]. Further, the inhibition at 50 µg/mL in the assay with Mycosphaerella arachidis came out at 11.8%; with Cladosporium cucumerinum, 12.7%; in [15], 13.3%; with Alternaria solani, 8%; in the assay on Fusarium graminearum, 51.1%. Moreover, the inhibition at 10 µM in the assay with Bel-7402 [14] and with HL-60 [17] was 0% each time. Further, the Activity with Cucumis sativus turned out to be 54.4%.
Turning to `CCOCCOC(=O)c1c(C(C)C)nn(-c2ccc(Cl)cc2Cl)c1N`, the inhibition at 1500 g/ha in the assay with Amaranthus retroflexus [1] is 0%; in the assay with Medicago sativa [4] it was 16.6%; in the assay with Brassica napus [5], 0%; in the assay with Digitaria sanguinalis [6], 0%; with Brassica napus [7], 0%; with Medicago sativa [8], 0%. The inhibition at 1500 g/ha in the assay on Digitaria sanguinalis [10] and in the assay on Amaranthus retroflexus [16] was 0% each time. For the same compound, the values for the inhibition at 100 µM with HL-60 [2] and in the assay on Bel-7402 [9] were 11.8% and 4.2%, respectively. For the same compound, the inhibition at 1 µM with HL-60 [3] was 4.4%; in the assay with Bel-7402 [13], 5.5%. In addition, the inhibition at 1000 µM in the assay on Bel-7402 [11] was found to be 45.6%; in the assay with HL-60 [12] it was 56.8%. For the same compound, the inhibition at 50 µg/mL was 44.1% in the assay on Mycosphaerella arachidis; 30.9% with Cladosporium cucumerinum; 9.3% in assay [15]; 28% in the assay with Alternaria solani; 26.7% in the assay with Fusarium graminearum. The inhibition at 10 µM is 0% in the assay with Bel-7402 [14] and 4.4% in the assay on HL-60 [17]. In addition, in the assay with Cucumis sativus, the Activity is on record as -2.4%.
`CCOCCOC(=O)c1c(CC)nn(-c2ccc([N+](=O)[O-])cc2)c1N`: the inhibition at 1500 g/ha with Amaranthus retroflexus [1] came out at 0%; in the assay with Medicago sativa [4], 0%; with Brassica napus [5], 15%; with Digitaria sanguinalis [6] it was 0%; with Brassica napus [7] it was 0%; in the assay on Medicago sativa [8] it was 0%. In addition, the inhibition at 1500 g/ha in the assay with Digitaria sanguinalis [10] and with Amaranthus retroflexus [16] was 0% in each case. In addition, the inhibition at 100 µM in the assay with HL-60 [2] was 13.1%; in the assay on Bel-7402 [9], 0%. Further, the inhibition at 1 µM is 0.8% in the assay on HL-60 [3] and 0% in the assay with Bel-7402 [13]. In addition, the results for the inhibition at 1000 µM in the assay on Bel-7402 [11] and in the assay on HL-60 [12] were 45.2% and 41.5%, respectively. Besides, the inhibition at 50 µg/mL amounted to 39.2% in the assay on Mycosphaerella arachidis; 36.4% with Cladosporium cucumerinum; 40% in assay [15]; 8% with Alternaria solani; 11.1% with Fusarium graminearum. Also, the inhibition at 10 µM in the assay with Bel-7402 [14] is 0%; in the assay with HL-60 [17] it was 1.3%. Also, the Activity with Cucumis sativus turned out to be 5.6%.
Turning to `CCOCCOC(=O)c1c(C(C)C)nn(-c2ccc([N+](=O)[O-])cc2)c1N`, the inhibition at 1500 g/ha with Amaranthus retroflexus [1], in the assay on Medicago sativa [4], in the assay on Brassica napus [5], in the assay on Digitaria sanguinalis [6], in the assay on Brassica napus [7] and in the assay on Medicago sativa [8] was 0% each time. In addition, the inhibition at 1500 g/ha in the assay on Digitaria sanguinalis [10] and in the assay with Amaranthus retroflexus [16] was 0% in each case. The inhibition at 100 µM with HL-60 [2] worked out at 27.8%; in the assay with Bel-7402 [9], 10.7%. In addition, the inhibition at 1 µM with HL-60 [3] and with Bel-7402 [13] was 0% each time. Further, the values for the inhibition at 1000 µM with Bel-7402 [11] and in the assay with HL-60 [12] were 48.6% and 10%, respectively. In addition, the inhibition at 50 µg/mL is 44.1% with Mycosphaerella arachidis; 40% in the assay with Cladosporium cucumerinum; 46.7% in [15]; 16% in the assay on Alternaria solani; 46.7% in the assay with Fusarium graminearum. In addition, the inhibition at 10 µM turned out to be 6.2% in the assay on Bel-7402 [14] and 9% in the assay with HL-60 [17]. For the same compound, the Activity in the assay with Cucumis sativus is 21.9%.
For `CCOCCOC(=O)c1c(SC)nn(-c2ccc(Cl)cc2Cl)c1N`, the inhibition at 1500 g/ha in the assay on Amaranthus retroflexus [1] worked out at 0%; in the assay on Medicago sativa [4], 0%; in the assay with Brassica napus [5], 0%; with Digitaria sanguinalis [6], 0%; with Brassica napus [7] it was 30%; with Medicago sativa [8] it was 0%. Moreover, the inhibition at 1500 g/ha with Digitaria sanguinalis [10] and in the assay on Amaranthus retroflexus [16] was 0% throughout. Also, the inhibition at 100 µM in the assay on HL-60 [2] turned out to be 16.9%; in the assay with Bel-7402 [9], 0%. Moreover, the results for the inhibition at 1 µM in the assay with HL-60 [3] and in the assay on Bel-7402 [13] were 4.3% and 0%, respectively. Besides, the inhibition at 1000 µM was 46.7% in the assay with Bel-7402 [11] and 56.1% with HL-60 [12]. For the same compound, the inhibition at 50 µg/mL in the assay with Mycosphaerella arachidis turned out to be 47.1%; with Cladosporium cucumerinum, 32.7%; in assay [15], 46.7%; in the assay on Alternaria solani, 16%; in the assay on Fusarium graminearum it was 42.2%. The inhibition at 10 µM in the assay with Bel-7402 [14] turned out to be 0%; with HL-60 [17], 8.4%. Also, in the assay with Cucumis sativus, the Activity was found to be 17.8%.
